# Reference: article PMC6438780 (Xenobiotica; the fate of foreign compounds in biological …, 2018)
# Like-named read-outs stand apart in the source and are kept apart here.
# Assays:
# human liver microsomes [1] = system: human liver microsomes
# [2] = system: liver microsomes of humans; conditions: ref data sheets provided by the manufacturer, cited from earlier work
# CYP2A6.1 = target: T1, CYP2A6.1 (Homo sapiens, UniProt P11509); conditions: 20 min, 60 µM
# T1 sequence (P11509 1-494): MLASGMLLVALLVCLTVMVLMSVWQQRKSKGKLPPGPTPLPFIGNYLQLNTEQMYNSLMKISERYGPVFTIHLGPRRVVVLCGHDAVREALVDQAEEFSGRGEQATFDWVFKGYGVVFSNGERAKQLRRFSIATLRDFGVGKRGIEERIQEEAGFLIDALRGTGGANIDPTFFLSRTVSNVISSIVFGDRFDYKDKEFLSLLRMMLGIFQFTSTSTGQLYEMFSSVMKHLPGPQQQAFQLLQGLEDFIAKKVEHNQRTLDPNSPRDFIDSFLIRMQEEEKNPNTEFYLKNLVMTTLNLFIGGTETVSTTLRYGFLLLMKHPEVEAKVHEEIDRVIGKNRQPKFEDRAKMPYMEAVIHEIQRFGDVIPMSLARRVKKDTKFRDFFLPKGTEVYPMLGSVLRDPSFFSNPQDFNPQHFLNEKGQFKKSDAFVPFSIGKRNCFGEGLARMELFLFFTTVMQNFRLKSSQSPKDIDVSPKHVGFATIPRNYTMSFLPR
# human liver microsomes [3] = experiment: Oxidation of flavanone and flavone by human liver microsomes; conditions: P450s and human liver microsomes, whole assay system
# human liver microsomes [4] = experiment: Effects of CYP-specific inhibitors; conditions: liver sample HH54 microsomes
structure (smiles),measurement,setting,value
"O=C1CC(c2ccccc2)Oc2ccccc21 (stereo not drawn) [flavanone, Flavanone]",rate of formation of flavone from flavanone,human liver microsomes [1],0.15 nmol/min/nmol
C[C@]12CC[C@H]3[C@@H](CCC4=CC(=O)CC[C@@]43C)[C@@H]1CC[C@@H]2O [Testosterone],Testosterone 6β-hydroxylation,[2]; human sample HG95,0.64 nmol/mg/min
same,Testosterone 6β-hydroxylation,[2]; human sample HH2,0.78 nmol/mg/min
same,Testosterone 6β-hydroxylation,[2]; human sample HH47,4.1 nmol/mg/min
same,Testosterone 6β-hydroxylation,[2]; human sample HH54,4.9 nmol/mg/min
CC(=O)O[C@H]1C(=O)[C@@]2(C)[C@H]([C@H](OC(=O)c3ccccc3)[C@]3(O)C[C@H](OC(=O)[C@H](O)[C@@H](NC(=O)c4ccccc4)c4ccccc4)C(C)=C1C3(C)C)[C@]1(OC(C)=O)CO[C@@H]1C[C@@H]2O [Paclitaxel],Paclitaxel 6a-hydroxylation,[2]; human sample HG95,0.093 nmol/min/mg
same,Paclitaxel 6a-hydroxylation,[2]; human sample HH2,0.13 nmol/min/mg
same,Paclitaxel 6a-hydroxylation,[2]; human sample HH47,0.13 nmol/min/mg
same,Paclitaxel 6a-hydroxylation,[2]; human sample HH54,0.21 nmol/min/mg
O=c1cc(-c2ccccc2)oc2ccccc12 [flavone],rate of formation of 5OHF from flavone,CYP2A6.1,~ 0.01 nmol/min/nmol P450
same,rate of formation of 6OHF from flavone,CYP2A6.1,0.11 min⁻¹
same,enzymatic formation of 7OHF from flavone,human liver microsomes [3],did not detect
CCOc1ccc(NC(C)=O)cc1 [Phenacetin],Phenacetin O-deethylation,[2]; human sample HG95,0.26 nmol/mg/min
same,Phenacetin O-deethylation,[2]; human sample HH2,0.51 nmol/mg/min
same,Phenacetin O-deethylation,[2]; human sample HH47,0.36 nmol/mg/min
same,Phenacetin O-deethylation,[2]; human sample HH54,0.44 nmol/mg/min
O=c1ccc2ccccc2o1 [coumarin],effect on formation of flavone (from flavanone),human liver microsomes [4]; 60 µM flavanone,inhibited
same,effect on 2´OHFva formation (from flavanone),"human liver microsomes [4]; 60 µM flavanone, low concentration of inhibitor",markedly decreased
same,"effect on formation of OHFM6, OHFM9, and diOHFM4 (from flavone)","human liver microsomes [4]; 60 µM flavone, low concentration of inhibitor",strongly inhibited
same,Coumarin 7-hydroxylation,[2]; human sample HG95,0.18 nmol/mg/min
same,Coumarin 7-hydroxylation,[2]; human sample HH2,no detectable
same,Coumarin 7-hydroxylation,[2]; human sample HH47,0.51 nmol/mg/min
same,Coumarin 7-hydroxylation,[2]; human sample HH54,2.5 nmol/mg/min
CC[C@@]1(c2ccccc2)NC(=O)N(C)C1=O [S-Mephenytoin],S-Mephenytoin 4’-hydroxylation,[2]; human sample HG95,0.015 nmol/min/mg
same,S-Mephenytoin N-demethylation,[2]; human sample HG95,0.0070 nmol/min/mg
same,S-Mephenytoin 4’-hydroxylation,[2]; human sample HH2,0.020 nmol/min/mg
same,S-Mephenytoin N-demethylation,[2]; human sample HH2,0.010 nmol/min/mg
same,S-Mephenytoin 4’-hydroxylation,[2]; human sample HH47,0.0040 nmol/min/mg
same,S-Mephenytoin N-demethylation,[2]; human sample HH47,0.0065 nmol/min/mg
same,S-Mephenytoin 4’-hydroxylation,[2]; human sample HH54,0.026 nmol/min/mg
same,S-Mephenytoin N-demethylation,[2]; human sample HH54,0.0010 nmol/min/mg
"O=c1cc(-c2ccccc2)oc2c1ccc1ccccc12 [ANF, α-naphthoflavone]","effect on formation of 7OHFva, 3´OHFva, 4´OHFva OHFvaM5, and OHFvaM6 (from flavanone)",human liver microsomes [4]; 60 µM flavanone,inhibited
same,"effect on formation of OHFM11, diOHFM3, and diOHFM5 (from flavone)",human liver microsomes [4]; 60 µM flavone,inhibited
